Reference: article PMC6359455, “Partial Solvation Parameters of Drugs as a New Thermodynamic Tool for Pharmaceutics” (Pharmaceutics, 2019)

Legend:
[1] = Differential scanning calorimetry (enthalpy of fusion); assay type: physicochemical; details: DSC, 10 °C/min, triplicate
Experimental: Differential scanning calorimetry (DSC) thermograms were obtained using a DSC 1 instrument from Mettler-Toledo AG (Greifensee, Switzerland). The instrument was calibrated for temperature and enthalpy using indium. Nitrogen was used as protective gas (150 mL/min). Samples (2–3 mg) were placed in 40 μL aluminum pans with pierced aluminum lids (Mettler-Toledo AG, Greifensee, Switzerland). The melting onset temperature (Tm) and the enthalpy of fusion (ΔHf) were determined by heating the samples at 10 °C/min from 25 °C to a maximum temperature of 300 °C. All DSC measurements were carried out in triplicate.

[2] = Cohesive energy (solubility-parameter) components by the PSP/LSER method
[3] = Residual solid XRPD analysis after solubility equilibration in solvents; assay type: physicochemical; details: 24 h equilibration at room temperature in solvent
Experimental: All experiments were performed in triplicate. The drug concentration in the solvent bulk phase was determined simultaneously with a residual solid analysis of the drug by means of XRPD to detect possible solvent-mediated phase changes. Such residual solid analysis has been published before for a different miniaturized assay. […] The closed vials were equilibrated for 24 h by magnetic stirring at room temperature. […] An isocratic flow of a mixture of solvent A and solvent B was initially applied for 0.3 min at a flow rate of 0.75 mL/min. […] Table 1 summarizes the experimental conditions (initial composition of mobile phase, detection wave length) used for the different drugs. For solid state analysis, approx. 10-20 mg of the residual wet solids was manually transferred into a 96-well MultiScreen® Solubility Filter Plate (Millipore, Bedford, MA, USA) by a spatula. The filter plate was immediately sealed with adhesive acetate foil for microtest well plates (Sarstedt Inc., Newton, NC, USA) to minimize solvent evaporation. Solid state analysis of residual solids was based on a high-throughput XRPD method using a […] […] Samples were analyzed directly in the 96-well filter plate with an exposure time of 5 min per well.

[4] = LSER descriptors by PSP approach from experimental inverse gas chromatography (IGC) data; assay type: physicochemical; details: initial or tentative estimates; for A (PSP): LSER acidity descriptor; for B (PSP): LSER basicity descriptor; for S (PSP): LSER polarity descriptor
Experimental: (§1) Inverse gas chromatography (IGC) was used to analyze solid samples packed into a chromatographic column as stationary phase. The equipment was a surface energy analyzer (iGC-SEA) from Surface Measurement Systems Ltd. (London, UK) and about 200 mg of each drug was inserted into silanized glass columns (3 mm inner diameter) by employing a standardized packing method with silanized glass wool that was used at both ends of the column as fixation. Prior to each measurement, the samples were conditioned for 1 h at 30 °C with dry helium with 0% relative humidity at a flow rate of 15 standard cubic centimeters per minute (sccm). Dead volume of the system was determined by injecting the inert probe methane prior and after each measurement. This stationary phase was flushed with an inert carrier gas—helium in the present study. Measuring conditions were the same as applied for sample conditioning, except for a flow rate of 10 sccm that was used. For all experiments, a relative surface coverage of 5% was selected.
The extent of interactions between the solid phase of interest and the probe gas is obtained by the net retention volume VN:(31) VN=j/mF(tR−t0)T/273.15, where T is the column temperature, F is the carrier gas flow rate at 1 atm and 273.15 K, m is the sample mass, tR is the retention time of the absorbed probe gas and t0 is the mobile phase hold up time, and finally, j represents the James–Martin correction (that adjusts retention time for the pressure drop effect in the column bed). The calculated retention volume VN is then used to estimate the mass activity coefficient, Ω at infinite dilution:(32) ln(Ω)=ln(273.15R/p0M1VN)−p0(B11−V1)/RT, where po is the saturation pressure and M is the molecular mass, while B11 is the second virial coefficient and V1 holds for molar volume of the probe gas. Conversion of the mass activity coefficient Ω to mole fraction activity coefficient γ (at infinite dilution) is done via the following equation:(33) lnγ1res,∞=ln(Ω1M1/M2)−(lnr1/r2+1−r1/r2)=r1χ12. and provided the basis for further thermodynamic analysis, as described in the Results section.
The PSP approach was used to characterize the studied drugs, that is, to determine their LSER descriptors from the experimental IGC data. The McGowan volume, Vx, is an atom-specific quantity and, thus, it is obtained either from the ACD software or from the freely accessible database via their SMILES form. […].
A and B descriptors were then obtained from IGC data with hydrogen-bonding probes (acidic, like chloroform, basic, like acetone, and homosolvated, like ethanol) correlated with Equation (34).

[5] = Surface energy components by IGC with the PSP/LSER method; assay type: physicochemical; details: for γd (dispersion component of surface energy): IGC, Dorris–Gray method, amorphous drug, 30 °C; for γhb (hydrogen-bonding surface energy component) / γa (acidic surface energy component) / γb (basic surface energy component) / γtot (total surface energy): PSP/LSER method; for γa (acidic surface energy component) / γb (basic surface energy component): Equation (27), unit assumed; for γtot (total surface energy): Equation (36)
Experimental: as §1
The PSP framework can also be used for the estimation of the surface energy components of the studied drugs. However, there are practically no data on the total surface energies of drugs available in the literature. Instead, the dispersion components, γd, were determined by the Dorris–Gray method. This dispersion component is practically equivalent to our nonhydrogen-bonding component, γVES. Thus, we may use Equation (29) in the equivalent form of Equation (36) and obtain the total surface energy of the drugs, γtot: (36) γtot=γd3.1Vx+E+S+2AB/3.1Vx+E+S.
In a similar manner, the acidity and basicity components of the surface energy are obtained from Equation (27).

ΔH^m (heat of fusion) [1] [kcal/mol] | σGa (acidity PSP) [2] [MPa^0.5] | σGb (basicity PSP) [2] [MPa^0.5] | σd (dispersion PSP) [2] [MPa^0.5] | σhb (hydrogen-bonding PSP) [2] [MPa^0.5] | σp (polarity PSP) [2] [MPa^0.5] | σtot (square root of total cohesive energy density, equivalent to δtot) [2] [MPa^0.5] | A (PSP) [4] | B (PSP) [4] | S (PSP) [4] | γd (dispersion component of surface energy) [5] [mJ/m^2] | γhb (hydrogen-bonding surface energy component) [5] [mJ/m^2] | γa (acidic surface energy component) [5] [mJ/m^2] | γb (basic surface energy component) [5] [mJ/m^2] | γtot (total surface energy) [5] [mJ/m^2] | Compound | Residual solid form after solubility equilibration (XRPD) [3]
4.68 ± 0.406 | 4.03 | 6.94 | 19.60 | 9.01 | 10.33 | 23.92 | 0.71 | 2.1 | 4.66 | 49.43 | 5.64 | 1.64 | 4.85 | 55.07 | COc1cc(C(=O)NS(=O)(=O)c2ccccc2C)ccc1Cc1cn(C)c2ccc(NC(=O)OC3CCCC3)cc12 [Zafirlukast, zafirlukast] | at least one different solid form following equilibration
6.969 ± 0.198 | – | – | – | – | – | – | 0.20 | 0.7 ± 0.2 | 4.28 | 57.36 | 2.64 | 0.71 | 2.47 | 60.00 | CCC(C)(C)C(=O)O[C@H]1C[C@@H](C)C=C2C=C[C@H](C)[C@H](CC[C@@H]3C[C@@H](O)CC(=O)O3)[C@H]21 [Simvastatin, simvastatin] | –
12.71 ± 0.141 | 0.00 | 4.26 | 19.52 | 0.00 | 8.45 | 21.27 | 0.00 | 0.7 ± 0.3 | 2.75 | 45.86 | 0.00 | 0 | 1.84 | 45.86 | CC(=O)N1CCN(c2ccc(OCC3COC(Cn4ccnc4)(c4ccc(Cl)cc4Cl)O3)cc2)CC1 (stereo not shown) [Ketoconazole, ketoconazole] | –
6.685 ± 0.043 | – | – | 19.11 | – | 9.87 | – | 0.00 | 0.6 ± 0.2 | 2.96 | 41.6 | 0.00 | – | – | 41.60 | CCOC(=O)N1CCC(=C2c3ccc(Cl)cc3CCc3cccnc32)CC1 [Loratadine, loratadine] | –
11.32 ± 0.0884 | 3.92 | 6.68 | 19.75 | 8.14 | 9.91 | – | 0.50 | 1.45 | 3.19 | 47.83 | 5.13 | 1.51 | 4.37 | 52.96 | COc1ccccc1OCCNCC(O)COc1cccc2[nH]c3ccccc3c12 (stereo not shown) [Carvedilol, carvedilol] | a changed solid form in dichloromethane after equilibration
